Laboratory results: patent US10647693B2, “Inhibitors of influenza virus replication, application methods and uses thereof” (SUNSHINE LAKE PHARMA CO., LTD., priority 2016, dated 2020)

Assays:
in vivo = conditions: SD, rat
Procedure: (§1) Pharmacokinetic characteristics of the compound of the invention in SD rat were evaluated. The compounds disclosed herein were administered in form of a saline solution containing 5% DMSO, 5% Kolliphor HS 15 and 90% Saline. For intravenous administration (i.v.), the animals were administered with a dose of 1 mg/kg, and blood samples (0.3 mL) were collected at the time points of 0.083, 0.25, 0.5, 1.0, 2.0, 5.0, 7.0 and 24 h after drug administration, then each blood sample was processed to separate plasma by centrifugation at 3000 rpm or 4000 rpm for 10 minutes. For oral administration (p.o.), the animals were administered with a dose of 5 mg/kg, and blood samples (0.3 mL) were collected at the time points of 0.25, 0.5, 1.0, 2.0, 5.0, 7.0 and 24 h after drug administration, then each blood sample was processed to separate plasma by centrifugation at 3000 rpm or 4000 rpm for 10 minutes. Plasma samples were collected and stored at −20° C. or −70° C. until LC/MS/MS analysis.

virus H1N1 A/Weiss/43 = assay: microbe, parasite or virus in culture; type: cell-based; conditions: Influenza A virus, 120 h; inhibition of CPE caused by A/Weiss/43(H1N1) in MDCK cells, 5 days, CCK-8
[1] = SD, rat, in vivo, po, 5 mg/kg
Procedure: as §1

## N#Cc1c(-c2c[nH]c3c(F)cc(F)cc23)nc(NC2C3CCC(CC3)C2C(=O)O)c(F)c1-c1ccco1 (racemic) [Example 1, (+/−)-trans-3-((5-cyano-6-(5,7-difluoro-1H-indol-3-yl)-3-fluoro-4-(furan-2-yl)pyridin-2-yl)amino)bicyclo[2.2.2]octane-2-carboxylic Acid]
In vivo; iv, 1 mg/kg
  AUC(0-inf): 5710 ng·h/mL
  AUC(0-t): 5680 ng·h/mL
  Cmax: 6560 ng/mL
  Tmax: 0.083 h
  Vd: 0.231 L/kg
  clearance: 3.86 mL/min/kg
  half-life: 1.24 h
In vivo; po, 5 mg/kg
  AUC(0-inf): 21600 ng·h/mL
  AUC(0-t): 21300 ng·h/mL
  Cmax: 5780 ng/mL
  Tmax: 1.1 h
  half-life: 1.52 h
Virus H1N1 A/Weiss/43
  EC50: 0.27 nM
[1]
  F: 83.9%

## N#Cc1c(-c2c[nH]c3c(F)cc(F)cc23)nc(NC2C3CCC(CC3)C2C(=O)O)c(F)c1-c1ccc(C(F)(F)F)cc1 (racemic) [Example 3, (+/−)-trans-3-((5-cyano-6-(5,7-difluoro-1H-indol-3-yl)-3-fluoro-4-(4-trifluoromethylphenyl)pyridin-2-yl)amino)bicyclo[2.2.2]octane-2-carboxylic Acid]
In vivo; iv, 1 mg/kg
  AUC(0-inf): 2620 ng·h/mL
  AUC(0-t): 2580 ng·h/mL
  Cmax: 4340 ng/mL
  Tmax: 0.083 h
  Vd: 1.98 L/kg
  clearance: 7.18 mL/min/kg
  half-life: 1.13 h
In vivo; po, 5 mg/kg
  AUC(0-inf): 13100 ng·h/mL
  AUC(0-t): 12600 ng·h/mL
  Cmax: 8860 ng/mL
  Tmax: 0.35 h
  half-life: 1.76 h
[1]
  F: 104.6%

## N#Cc1c(-c2c[nH]c3c(F)cc(F)cc23)nc(NC2C3CCC(CC3)C2C(=O)O)c(F)c1C1CC1 (racemic) [Example 8, (+/−)-trans-3-((5-cyano-4-cyclopropyl-6-(5,7-difluoro-1H-indol-3-yl)-3-fluoropyridin-2-yl)amino)bicyclo[2.2.2]octane-2-carboxylic Acid]
Virus H1N1 A/Weiss/43
  EC50: 5.09 nM

## N#Cc1c(-c2c[nH]c3ncc(F)cc23)nc(NC2C3CCC(CC3)C2C(=O)O)c(F)c1C1CC1 (racemic) [Example 9, (+/−)-trans-3-((5-cyano-4-cyclopropyl-3-fluoro-6-(5-fluoro-1H-pyrrolo[2,3-b]pyridin-3-yl)pyridin-2-yl)amino)bicyclo[2.2.2]octane-2-carboxylic Acid]
In vivo; iv, 1 mg/kg
  AUC(0-inf): 2710 ng·h/mL
  AUC(0-t): 2640 ng·h/mL
  Cmax: 3640 ng/mL
  Tmax: 0.083 h
  Vd: 0.551 L/kg
  clearance: 5.46 mL/min/kg
  half-life: 2.15 h
In vivo; po, 5 mg/kg
  AUC(0-inf): 8230 ng·h/mL
  AUC(0-t): 8140 ng·h/mL
  Cmax: 2850 ng/mL
  Tmax: 0.46 h
  half-life: 3.39 h
Virus H1N1 A/Weiss/43
  EC50: 0.49 nM
[1]
  F: 65.2%

## N#Cc1c(-c2c[nH]c3c(F)cc(F)cc23)nc(NC2C3CCC(CC3)C2C(=O)O)c(F)c1-c1ccccc1 (racemic) [Example 14, (+/−)-trans-3-((5-cyano-6-(5,7-difluoro-1H-indol-3-yl)-3-fluoro-4-phenylpyridin-2-yl)amino)bicyclo[2.2.2]octane-2-carboxylic Acid]
In vivo; iv, 1 mg/kg
  AUC(0-inf): 3520 ng·h/mL
  AUC(0-t): 3450 ng·h/mL
  Cmax: 4130 ng/mL
  Tmax: 0.083 h
  Vd: 0.432 L/kg
  clearance: 5.12 mL/min/kg
  half-life: 1.31 h
In vivo; po, 5 mg/kg
  AUC(0-inf): 10300 ng·h/mL
  AUC(0-t): 10100 ng·h/mL
  Cmax: 2980 ng/mL
  Tmax: 1.22 h
  half-life: 1.46 h
Virus H1N1 A/Weiss/43
  EC50: 10.5 nM
[1]
  F: 74.6%

## Cn1ccc2c(NC3C4CCC(CC4)C3C(=O)O)nc(-c3c[nH]c4ncc(F)cc34)cc21 (racemic) [Example 20, (+/−)-trans-3-((6-(5-fluoro-1H-pyrrolo[2,3-b]pyridin-3-yl)-1-methyl-1H-pyrrolo[3,2-c]pyridin-4-yl)amino)bicyclo[2.2.2]octane-2-carboxylic Acid]
Virus H1N1 A/Weiss/43
  EC50: 2.58 nM

## Cn1cc(-c2c(F)c(N[C@H]3C4CCC(CC4)[C@@H]3C(=O)O)nc(-c3c[nH]c4c(F)cc(F)cc34)c2C#N)cn1 [Example 12a, (2S,3S)-3-((5-cyano-6-(5,7-difluoro-1H-indol-3-yl)-3-fluoro-4-(1-methyl-1H-pyrazol-4-yl)pyridin-2-yl)amino)bicyclo[2.2.2]octane-2-carboxylic Acid]
Virus H1N1 A/Weiss/43
  EC50: 0.96 nM
